# Reference: patent publication US10906904B2, “ADO-resistant cysteamine analogs and uses thereof” (HORIZON ORPHAN LLC, priority 2015, dated 2021)
# Like-named read-outs stand apart in the source and are kept apart here.
# How the values were obtained:
# [1] = test system: cystinotic human fibroblasts; assay: Cystine depletion assay; format: cell-based; settings: for Emax: Homo sapiens, Fibroblast, 1 h, read-out: Cystine Depletion (%); for Emax / Cystine Depletion (%): Table 4, relative to cystine depletion by cysteamine (100%) at a similar concentration; for Cystine depletion: compound at 50 μM or 100 μM, Tables 1-3
# Experimental: The ability of test compounds to deplete cystine from cystinotic human fibroblasts (Coriell) was determined by incubating compounds with cells for 60 min at 37° C., 95% (v/v) air/5% (v/v) CO2 in Minimal Essential Media Eagle. Treated cell samples were subsequently harvested, then homogenized to ensure plasma and lysosomal membrane disruption. Protein was removed by acid precipitation and cystine in the supernatant measured using LC-MS/MS and HILIC chromatography. Protein levels were determined and cystine levels reported as nM per mg/ml protein. Cystine levels after test compound treatment were expressed as a percentage of that of untreated control cells.
# Compounds were assayed at a concentration of 50 μM or 100 μM according to the general methods described above.
# Cystine depletion levels for the compounds are expressed in Table 4 as a percent relative to the cystine depletion achieved by cysteamine (c.f. cysteamine 100%) at a similar concentration.
# Cystine depletion levels for each of the compounds in Table 5 are expressed as a percent relative to the cystine depletion achieved by cysteamine (c.f. cysteamine 100%) at a similar concentration.
# human recombinant ADO = biological target: T1, human recombinant ADO (Homo sapiens, UniProt Q96SZ5); format: in vitro ADME
# T1 sequence (Q96SZ5 1-270): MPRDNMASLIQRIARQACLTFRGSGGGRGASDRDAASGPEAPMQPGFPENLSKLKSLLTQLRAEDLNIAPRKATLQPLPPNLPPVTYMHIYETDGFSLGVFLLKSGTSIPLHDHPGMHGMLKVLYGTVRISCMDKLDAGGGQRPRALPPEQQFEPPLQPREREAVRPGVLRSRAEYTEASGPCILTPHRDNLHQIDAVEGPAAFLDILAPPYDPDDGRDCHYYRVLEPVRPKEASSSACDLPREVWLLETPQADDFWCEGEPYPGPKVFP
# Experimental: The rate of ADO metabolism was determined by incubating 15 mM test compound with 60 μg/ml human recombinant ADO and 20 nM MitoXpress® O2-sensitive fluorescent probe (Luxcel) at 37° C. in assay buffer/salt in a sealed assay chamber. The initial rate of fluorescence (excitation λ380 nm and emission λ650 nm) increase was used to measure ADO-dependent oxygen depletion activity. The ability of ADO to metabolize compounds and concomitantly consume oxygen was expressed relative to that of 15 mM cysteamine.
# Cystine reactivity assay [2] = settings: Table 4
# Cystine reactivity assay [3] = assay: Cystine reactivity assay; design: Cystine Reactivity: unit not given here; settings: for Cystine Reactivity Assay (30° C.) (%) Mean Value: Table 4, percentage of 3 mM cysteamine
# Experimental: Cystine reactivity was assessed by incubating 3 mM test compound with 100 nM BODIPY® FL L-Cystine (Life Tech.) at 30° C., pH 7.4 in phosphate buffer. […] Compound cystine reactivity was expressed as a percentage of that of 3 mM cysteamine.
# Under resting conditions, the inherent fluorescence of BODIPY® FL L-cystine was very low due to the spatial proximity of the two BODIPY molecules causing quenching. Under chemical reaction (disruption of the S—S bond), the spatial distance was increased, the quenching lost, and measured fluorescence increased. Time (minutes) vs. fluorescence (relative fluorescence units—RFU) was plotted and linear regression analysis was performed to generate a slope value corresponding to the reaction rate in RFU/min and an R2 value.
# [4] = Dimethyl sulfide (DMS) detection in rat whole blood following oral compound administration; format: in vivo
# Experimental: Male Sprague Dawley (SD) rats (200-250 g) were housed in cages under a 12 hour light/dark cycle with free access to food and water. Temperature and humidity were controlled according to UK Home Office regulations. For oral (po) administration, test compounds were formulated in water at a concentration of 30 mg/mL, to provide a dose of 150 mg/kg when administered orally in a 5 mL/kg dosing volume. Following compound or water (vehicle) administration to rats (n=15 per compound), terminal blood samples (>5 mL) were taken by cardiac puncture under CO2 at defined time-points post oral dosing (pre-dose, 0.25 hour, 0.5 hour, 1 hour and 2 hour). Blood was placed in sealed heparinized Eppendorf tubes on wet ice and stored at 4° C. prior to analyzing DMS levels by gas chromatography (GC).
# For each sample of rat blood, 1 mL was added to an evacuated 20 mL GC-Headspace vial containing tetrahydrofuran (THF) internal standard. Headspace vials were sealed with a crimp cap and septum (to prevent the vaporization of volatile sulfur compounds into the open air) and thoroughly vortex mixed. All samples were processed using gas chromatography to measure DMS levels. In short, sulfur containing compounds were thermally liberated into the gas carrier stream and injected (1 μL) into the gas chromatography column (30 m×0.32 mm DB-624 1.8 μm). Under these conditions, the retention time for dimethyl sulfide (DMS) and THF internal standard were approximately 1.83 minutes and 3.82 minutes respectively.
# For each analyzed blood sample, the ratio of DMS peak area to THF peak area was calculated. For the DMS calibration curve and assay linearity checks, this ratio was graphically plotted against the concentration of reference DMS standards (blank, 60 nM, 180 nM, 360 nM, 600 nM, 1200 nM, 1800 nM and 3000 nM). The concentration of DMS in each blood sample was calculated from the equation produced by this plot by linear regression analysis. […].
# [5] = Rodent pharmacokinetic assay (mouse)
# Experimental: (§1) Pharmacokinetic parameters of a test compound in a rodent species (mouse and/or rat) were determined by administering a test compound at 2 and 10 mg free base equivalents per kg via the intravenous and oral gavage route to groups of three animals per route.
# (§2) Blood samples were taken at various times after administration, plasma prepared, and submitted to analysis for parent drug using a qualified LC-MS-MS assay. Pharmacokinetics parameters derived from the plasma analytical data were determined using non-compartmental analysis.
# [6] = test system: cryopreserved rat hepatocytes; assay: Rat hepatocyte stability assay
# Experimental: Rat hepatocytes were used to model in vivo hepatic clearance of the compounds by the ADO enzyme. Briefly, a Hepatocyte Stability Assay was carried out using cryopreserved rat hepatocytes.
# St-HdhQ^111/111 cells = assay: Glutamate-induced neuronal excitotoxicity assay; format: cell-based
# Experimental: The ability of test compounds to inhibit glutamate-induced excitotoxicity (neuroprotection) in St-HdhQ^111/111 cells was determined by incubating compounds with cells for 60 min at 33° C., 95% (v:v) air/5% (v:v) CO2 in Dulbecco's Modified Eagle Media. Following this, excitotoxicity was induced by the addition of 6 mM L-glutamate for 24 hours. Cell viability was assessed by measuring ATP levels using a luminescent-based CellTitre Glo assay (Promega). Compound neuroprotection (% cell survival) was expressed as a % of the effect recorded with 100 μM cysteamine (denoted as 100% cell survival).
# [7] = Rodent pharmacokinetic assay (rat); format: in vivo; settings: 2 and 10 mg free base equivalents per kg, intravenous and oral gavage
# Experimental: as §1, §2
# [8] = Table 4, relative to 15 mM cysteamine
# [9] = 2 and 10 mg free base equivalents per kg, intravenous and oral gavage
smiles,measurement,setting,value
SCCc1ccncc1 [Compound 17522],Emax,[1],6%
same,ADO Metabolism Assay (%) Mean Value,"human recombinant ADO; human, 15 mM",<25%
same,Cystine Reactivity Assay (RT) (RFU) Mean Value,Cystine reactivity assay [2],<4000 RFU
CC(S)CN (stereo not shown) [Compound 17330],Cystine Reactivity Assay (RT) (RFU) Mean Value,Cystine reactivity assay [2],4000-9000 RFU
SCCN1CCCC1 [Compound 17518],Emax,[1],99%
same,ADO Metabolism Assay (%) Mean Value,human recombinant ADO; [8],<25%
same,Cystine Reactivity Assay (RT) (RFU) Mean Value,Cystine reactivity assay [2],>9000 RFU
CN1CCC(S)CC1 [Compound 17521],Cystine Reactivity Assay (30° C.) (%) Mean Value,Cystine reactivity assay [3],50-90%
same,Emax,[1],79%
same,ADO Metabolism Assay (%) Mean Value,"human recombinant ADO; human, 15 mM",<25%
same,Cystine Reactivity Assay (RT) (RFU) Mean Value,Cystine reactivity assay [2],4000-9000 RFU
NCCS [Cysteamine],"Mean DMS levels (nM) ± STD, Time 0.5 hr","[4]; rat whole blood, 150 mg/kg po, 0.5 hr",1097 ± 418 nM
same,"Mean DMS levels (nM) ± STD, Time 1 hr","[4]; rat whole blood, 150 mg/kg po, 1 hr",1162 ± 373 nM
same,"Mean DMS levels (nM) ± STD, Time 2 hr","[4]; rat whole blood, 150 mg/kg po, 2 hr",1437 ± 334 nM
same,"Mean DMS levels (nM) ± STD, Time […]","[4]; rat whole blood, 150 mg/kg po, […]",641 ± 324 nM
same,Mouse PK Bioavailability,[5]; [9],33%
same,Mouse PK-Half life,[5]; [9],2.4 h
same,Rat Hepatocytes CLint,[6],33700 µL/min/mg
same,Cystine Reactivity Assay (30° C.) (%) Mean Value,Cystine reactivity assay [3],>90%
same,Cystine Reactivity,Cystine reactivity assay [3]; Tables 1-3,6543
same,Cystine Depletion (%),[1],100%
same,Cystine depletion,[1],101%
same,Cystine depletion ( ) = disulfide efficacy,"[1]; disulfide of the compound, 50 μM or 100 μM",(106%)
same,ADO Metabolism Assay (%) Mean Value,human recombinant ADO; [8],>75%
same,ADO metabolism,"human recombinant ADO; relative to 15 mM cysteamine, Tables 1-3",111%
same,HdhQ^111/111 cell % survival (mean ± STD) Test Conc. 10 μM,"St-HdhQ^111/111 cells; 10 μM, 6 mM L-glutamate 24 hours, % of effect of 100 μM cysteamine",20 ± 6%
same,HdhQ^111/111 cell % survival (mean ± STD) Test Conc. 100 μM,"St-HdhQ^111/111 cells; 100 μM, 6 mM L-glutamate 24 hours, % of effect of 100 μM cysteamine",105 ± 13%
same,inhibition of glutamate-induced excitotoxicity / cell survival (in words),St-HdhQ^111/111 cells; St-HdhQ^111/111 cells,capable of inhibiting glutamate-induced excitotoxicity
same,Cystine Reactivity Assay (RT) (RFU) Mean Value,Cystine reactivity assay [2],4000-9000 RFU
same,Rat PK Bioavailability,[7],62%
same,Rat PK-Half life,[7],0.5 h
CC(C)(S)CN [Compound 18782],"Mean DMS levels (nM) ± STD, Time 1 hr","[4]; male, Sprague Dawley, rat, in vivo, po, 150 mg/kg, 1 h",<60 nM
same,"Mean DMS levels (nM) ± STD, Time 2 hr","[4]; male, Sprague Dawley, rat, in vivo, po, 150 mg/kg, 2 h",<60 nM
same,Emax,[1],32%
same,ADO Metabolism Assay (%) Mean Value,"human recombinant ADO; human, 15 mM",<25%
same,Cystine Reactivity Assay (RT) (RFU) Mean Value,Cystine reactivity assay [2],<4000 RFU
SC1CCNCC1 [Compound 2c],half-life,"[5]; plasma, 10 mg",7.1 h
same,bioavailability,"[5]; plasma, oral, 10 mg",74%
same,cystine depletion levels (in words),[1]; compared to cysteamine,slightly decreased
same,Cystine depletion,[1],73%
same,metabolism by ADO compared to cysteamine (in words),human recombinant ADO,significantly reduced metabolism by ADO compared to cysteamine
same,ADO metabolism,"human recombinant ADO; human, 15 mM",2%
CC(N)CS (stereo not shown) [Compound 17515],Cystine Depletion (%),[1],97%
same,Cystine Reactivity Assay (RT) (RFU) Mean Value,Cystine reactivity assay [2],4000-9000 RFU
N[C@H]1C[C@H](S)C1 [Compound 42460],Cystine Reactivity Assay (30° C.) (%) Mean Value,Cystine reactivity assay [3],59-90%
same,Emax,[1],111%
same,ADO Metabolism Assay (%) Mean Value,"human recombinant ADO; human, 15 mM",<25%
same,viability at 10 µM,"St-HdhQ^111/111 cells; STHdhQ111, 10 μM, 6 mM L-glutamate 24 hours, % of effect of 100 μM cysteamine, read-out: HdhQ^111/111 cell % survival (mean ± STD) Test Conc. 10 μM",3 ± 5%
same,viability at 100 µM,"St-HdhQ^111/111 cells; STHdhQ111, 100 μM, 6 mM L-glutamate 24 hours, % of effect of 100 μM cysteamine, read-out: HdhQ^111/111 cell % survival (mean ± STD) Test Conc. 100 μM",95 ± 9%
